Patent publication US5587478A, “Sapphyrin multimers” (Board of Regents, The University of Texas System, priority 1995, dated 1996)
“Also recorded” adds a separate entry of the source. Read-outs that look alike come from different tables or passages of the source. One block for each molecule: values may come before it.

Legend:
[1] = diprotonated form; acidic pH; cited from earlier work
DNA = DNA binding of unmodified sapphyrin
[2] = Protonation state of sapphyrin; format: physicochemical
[3] = U-tube model membrane transport, 4-nitrophthalate; conditions: carrier 0.1 mM in dichloromethane; source 10 mM each of three acids, pH 7.2; receiving pH 7; 24-26 °C; error ±10%
Experimental: (§1) To illustrate the binding of dicarboxylate anions by sapphyrin dimers, transport studies were carried out utilizing a standard U-tube model membrane system. Transport experiments were performed using a glass U-tube at 24°-26° C. Conditions: Source phase: 1 mL of a 1:1:1 ratio of 4-nitrophthalic acid, 5-nitroisophthalic acid and nitroterephthalic acid (10 mM of each) at pH 7.2 (adjusted by the addition of NaOH). Membrane (6 mL); carrier (1a or 23): 0.1 mM in dichloromethane. Receiving phase: 1 mL of H2 O, pH 7.0. The release of the dicarboxylate dianions into the receiving phase was monitored as a function of time via HPLC product analysis achieved using adenosine or uridine as the internal standards. In all cases, control experiments were performed in the absence of carrier. Error is within ±10%.

[4] = U-tube model membrane transport, 5-nitroisophthalate; conditions: carrier 0.1 mM in dichloromethane; source 10 mM each of three acids, pH 7.2; receiving pH 7; 24-26 °C; error ±10%
Experimental: as §1

[5] = U-tube model membrane transport, nitroterephthalate
Experimental: as §1

[6] = U-tube model membrane transport of dicarboxylates, summary; conditions: neutral pH
Experimental: as §1

[7] = Binding constant titration in methanol; conditions: for Kd: binding constant, 1H NMR, methanol, 293 K, 23 as bis HCl salt
Description: (§2) Quantitative assessments of dicarboxylate binding efficacy in methanol were made using standard spectroscopic techniques. In general, ^1 H NMR methods were employed, with the observed changes in the ^1 H NMR chemical shifts of the aromatic protons of the carboxyl-containing substrate (kept constant in the mM concentration range) being monitored as a function of increased receptor concentration. In some instances, well-resolved shifts could not be observed in the appropriate ^1 H NMR spectra. Here, either visible spectroscopic titration procedures were used or deuterated substrates were employed such that the binding process could be followed by ^2 H NMR.
(§3) More specifically, binding studies were effected by means of ^1 H NMR (General Electric QE-300), ^2 H NMR (Bruker AM-500) and Vis (Beckman DU 640) titrations and were carried out at 293 K. using methanol as the solvent. Methanol-d4 was used for the ^1 HNMR titrations and non-deuterated methanol was used for the ^2 H NMR analyses. For both sets of NMR titrations, the substrate concentration was held constant and the receptor concentration varied. The change in the chemical shifts of the aromatic hydrogen/deuterium atoms of the substrates were then followed and used as a way of monitoring, in a relative way, the concentration of the bound and unbound species. For the Vis titrations, the receptor concentration was held constant and the substrate concentration varied. There, the change in absorption of the Soret-like band of receptor 23 was followed. Receptor 23 was used in the form of its bis-HCl salt, 23-2HCl. This salt was prepared by washing a dichloromethane solution of 23 (in its free-base form) three times with independent portions of an aqueous pH 6 solution of HCl, followed by 1) drying over Na2 SO4, 2) evaporative removal of solvent and 3) drying in vacuo. Substrates were used as their trimethylammonium salts. They were prepared by dissolving the relevant dicarboxylic acid in methanol and then bubbling with trimethylamine gas for 10 min. […]

[8] = Binding constant titration in methanol; conditions: for Ka: methanol, 293 K, 23 as bis HCl salt
Description: as §2, §3

[9] = Binding constant titration in methanol
Description: as §2
(§4) More specifically, binding studies were effected by means of ^1 H NMR (General Electric QE-300), ^2 H NMR (Bruker AM-500) and Vis (Beckman DU 640) titrations and were carried out at 293 K. using methanol as the solvent. Methanol-d4 was used for the ^1 HNMR titrations and non-deuterated methanol was used for the ^2 H NMR analyses. For both sets of NMR titrations, the substrate concentration was held constant and the receptor concentration varied. The change in the chemical shifts of the aromatic hydrogen/deuterium atoms of the substrates were then followed and used as a way of monitoring, in a relative way, the concentration of the bound and unbound species. […]

[10] = Binding constant titration in methanol; remark: listed apart in the source
Description: as §2, §4

[11] = Binding constant titration in methanol; remark: listed apart in the source
Description: as §2, §4

[12] = Binding constant titration in methanol; conditions: for Kd: methanol, 293 K, 23 as bis HCl salt, read-out: K1, K2 (converted)
Description: as §2, §3

[13] = Binding constant titration in methanol; remark: listed apart in the source
Description: as §2, §4

[14] = Binding constant titration in methanol; remark: listed apart in the source
Description: as §2, §4

[15] = Carboxylate binding, summary statements
Description: as §2, §4

[16] = relative to the worst bound substrate, oxalate
[17] = Vis spectroscopy, methanol, 293 K, 23 as bis HCl salt

SMILES: CCC1=C(C)c2cc3[nH]c(c(C)c3CC)c3[nH]c(cc4nc(cc5[nH]c(cc1n2)c(CC)c5CC)C(CC)=C4C)c(CC)c3C [3,8,12,13,17,22-hexaethyl-2,7,18,23-tetramethylsapphyrin]
carrier for through-membrane transport [1]: efficient carrier

mode of DNA binding (DNA): not intercalation or groove binding
Kd (DNA; unmodified sapphyrin, read-out: binding constant for DNA): ~1 µM
pH range in which sapphyrin remains monoprotonated [2]: 3.5-10 pH
SMILES: CCc1c(CC)c2cc3nc(cc4[nH]c(c(C)c4CC)c4[nH]c(cc5nc(cc1[nH]2)C(CCC(=O)N(CCO)CCO)=C5C)c(CC)c4C)C(C)=C3CCC(=O)N(CCO)CCO [sapphyrin]

Kd ([7]; read-out: K1 (converted)): 3230 µM
Kd ([7]; read-out: K2 (converted)): 3570 µM
Selectivity [7, 16]: 1.2
Ka ([8]; Vis spectroscopy): 2 500 M^-1
Ka ([8]; first value, footnote printed c): 2 400 M^-1
Selectivity [8, 16]: 9.4
Ka [9, 17]: 5 300 M^-1
Selectivity [9, 16]: 20.4
Ka ([10]; 2H NMR, methanol, 293 K, 23 as bis HCl salt): 4 600 M^-1
Selectivity [10, 16]: 17.7
Ka [11, 17]: 9 100 M^-1
Selectivity [11, 16]: 35.0
Kd ([12]; 1H NMR): 725 µM
Kd ([12]; 2H NMR): 654 µM
Selectivity [12, 16]: 5.6
Ka [13, 17]: 260 M⁻¹
Selectivity [13, 16]: 1
Ka [14, 17]: 450 M⁻¹
Selectivity [14, 16]: 1.7
SMILES: CCC1=C(C)c2cc3[nH]c(c(C)c3CC)c3[nH]c(cc4nc(cc5[nH]c(cc1n2)c(C)c5CCC(=O)NCCCNC(=O)CCc1c(C)c2cc5nc(cc6[nH]c(c(C)c6CC)c6[nH]c(cc7nc(cc1[nH]2)C(CC)=C7C)c(CC)c6C)C(C)=C5CC)C(CC)=C4C)c(CC)c3C [Compound 23, 1,3-bis[12-aminocarbonylethyl-(3,8,17,22-tetraethyl-2,7,13,18,23-pentamethylsapphyrin)]propane]
Initial rate of transport kT, ortho [3]: 2.190 10^-10 mol/cm^2 · h
Initial rate of transport kT, meta [4]: 2.926 10^-10 mol/cm^2 · h
Initial rate of transport kT, para ([5]; carrier 0.1 mM in dichloromethane, source 10 mM each of three acids, pH 7.2, receiving pH 7, 24-26 °C, error ±10%): 6.803 10^-10 mol/cm^2 · h
Transport rate of nitroterephthalate relative to 4-nitrophthalate ([5]; direct competition experiments): three times faster
Carrier efficacy for dicarboxylates [6]: acts as an efficient carrier for a range of dicarboxylates
Affinity and selectivity for carboxylates (in words) [15]: little affinity for monocarboxylate-derived substrates; also recorded: very good affinities for certain dicarboxylates; also recorded: preference for linear over bent substrates and aromatic over aliphatic substrates
